Experimental data as given in patent US20240294543A1, “CYCLOHEPTA-THIENO-DIAZEPINE DERIVATIVES AS GABA A GAMMA1 PAM” (Hoffmann-La Roche Inc., priority 2021, published 2024).

Legend:
[1] = biological target: human GABAA α1β3γ2 receptor (Homo sapiens (Human), UniProt P14867+P18507); experiment: Radioligand binding assay, competition for [3H]Flumazenil, γ2-containing GABAA subtypes; details: Table 1
Summary of the method: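 Competition against [3H]Flumazenil binding in HEK293F cells transiently expressing human α1β3γ2 receptors, pellets resuspended in mannitol buffer pH 7,2-7,4. Incubated to equilibrium 1 hour at 4° C, filtered and washed with ice-cold 50 mM Tris pH 7.5, bound radioactivity by liquid scintillation counting. Ki values are means of two determinations.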

[2] = biological target: human GABAA α2β2γ1 receptor (Homo sapiens (Human), UniProt P47869+Q8N1C3); experiment: Radioligand binding assay, competition for [3H]RO7239181, γ1-containing GABAA subtypes; details: Ki h-GABAA α2β2γ1, membranes of HEK293F cells, [3H]RO7239181 20-30 nM
h-GABA-A α2β2γ1 = h-GABA-A α2β2γ1 (Homo sapiens (Human), UniProt P47869+Q8N1C3); experiment: Two-electrode voltage clamp electrophysiology in Xenopus oocytes expressing GABAA receptors; assay type: cell-based
Summary of the method: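 Xenopus oocytes injected with receptor subunit RNA and recorded 3–5 days later by two-electrode voltage clamp at −80 mV, room temperature, pH 7.4. GABA applied at EC20 for 1.5 min, with and without test compound. Efficacy = extremum of the point-by-point ratio of the two responses, expressed as % modulation of GABA EC20; ≥3 oocytes per concentration.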

`C[C@@H]1N=C(c2c(F)cccc2F)c2c(sc3c2COCCC3)-n2nc(C(=O)NC[C@@](C)(O)C(F)(F)F)nc21` [Example 70, (7S)-9-(2,6-difluorophenyl)-7-methyl-N-[(2R)-3,3,3-trifluoro-2-hydroxy-2-methyl-propyl]-13-oxa-18-thia-2,3,5,8-tetrazatetracyclo[8.8.0.02,6.011,17]octadeca-1(10),3,5,8,11(17)-pentaene-4-carboxamide] was tested, and the Ki ([1]; HEK293F cells, [3H]Flumazenil 1 nM, read-out: Ki h-GABAA α1β3γ2) was 3.55 µM, the “γ2/γ1 Selectivity Ratio” value ([1]; Ki α1β3γ2 (nM)/Ki α2β2γ1 (nM)) was 71.1 and the LogSel ([1]; Log[Ki α1β3γ2 (nM)/Ki α2β2γ1 (nM)]) was 1.85. For the same compound, the Ki ([2]; Table 1) was 49.9 nM, the Ki ([2]; Table 2) was 49.9 nM and the “Efficacy (GABA) %” value (h-GABA-A α2β2γ1; % modulation of GABA EC20 = 100*(Fold increase−1), compound at about 30-fold its Ki α2β2γ1) was 148%. For the same compound, the “Fold increase h-GABA-A α2β2γ1 oocyte @ 30-fold Ki” value (h-GABA-A α2β2γ1; Xenopus oocytes, GABA EC20, compound at about 30-fold its Ki α2β2γ1) was 2.48.
